Source: ChEMBL document CHEMBL1129023, “Nucleosides and nucleotides. 150. Enzymatic synthesis of 5-phosphatidyl derivatives of (CNDAC) and their notable antitumor effects in mice1” (1996)

Key:
Type in all cases: functional
Mus musculus [1] = experiment: Compound was evaluated for the percent increase in life span against M5076 sarcoma in mice at a sc dose of 100 mg/kg/day.; details: route subcutaneous
Mus musculus [2] = experiment: Compound was evaluated for the percent increase in life span against M5076 sarcoma in mice at a sc dose of 200 mg/kg/day.; details: route subcutaneous
Mus musculus [3] = experiment: Compound was evaluated for the percent increase in life span against M5076 sarcoma in mice at a sc dose of 300 mg/kg/day.; details: route subcutaneous
Mus musculus [4] = experiment: Compound was evaluated for the body weight change from day 1 to day 12 against M5076 sarcoma in mice at a sc dose of 100 mg/kg/day.; details: route subcutaneous
Mus musculus [5] = experiment: Compound was evaluated for the body weight change from day 1 to day 12 against M5076 sarcoma in mice at a sc dose of 200 mg/kg/day.; details: route subcutaneous
Mus musculus [6] = experiment: Compound was evaluated for the tumor growth inhibition on day 21 against M5076 sarcoma implanted sc in mice at a dose of 100 mg/kg/day.; details: 504 h, route subcutaneous, read-out: TGI
Mus musculus [7] = experiment: Compound was evaluated for the tumor growth inhibition on day 21 against M5076 sarcoma implanted sc in mice at a dose of 200 mg/kg/day.; details: 504 h, route subcutaneous, read-out: TGI
Mus musculus [8] = experiment: Compound was evaluated for the tumor growth inhibition on day 21 against M5076 sarcoma implanted sc in mice at a dose of 300 mg/kg/day.; details: 504 h, route subcutaneous, read-out: TGI
Mus musculus [9] = experiment: Compound was evaluated for the body weight change from day 1 to day 12 against M5076 sarcoma in mice at a sc dose of 300 mg/kg/day.; details: route subcutaneous
Mus musculus [10] = experiment: Compound was evaluated for the percent increase in life span against M5076 sarcoma in mice at a sc dose of 25 mg/kg/day.; details: route subcutaneous
Mus musculus [11] = experiment: Compound was evaluated for the percent increase in life span against M5076 sarcoma in mice at a sc dose of 50 mg/kg/day.; details: route subcutaneous
Mus musculus [12] = experiment: Compound was evaluated for the body weight change from day 1 to day 12 against M5076 sarcoma in mice at a sc dose of 25 mg/kg/day.; details: route subcutaneous
Mus musculus [13] = experiment: Compound was evaluated for the tumor growth inhibition on day 21 against M5076 sarcoma implanted sc in mice at a dose of 25 mg/kg/day.; details: 504 h, route subcutaneous, read-out: TGI
Mus musculus [14] = experiment: Compound was evaluated for the tumor growth inhibition on day 21 against M5076 sarcoma implanted sc in mice at a dose of 50 mg/kg/day.; details: 504 h, route subcutaneous, read-out: TGI
Mus musculus [15] = experiment: Compound was evaluated for the body weight change from day 1 to day 12 against M5076 sarcoma in mice at a sc dose of 50 mg/kg/day.; details: route subcutaneous
Mus musculus [16] = experiment: Compound was evaluated for the body weight change from day 1 to day 12 against M5076 sarcoma in mice at a sc dose of 300 mg/kg/day: toxic; details: route subcutaneous

Row | SMILES | ILS at 100 mg/kg/day (Mus musculus [1]) | ILS at 200 mg/kg/day (Mus musculus [2]) | ILS at 300 mg/kg/day (Mus musculus [3]) | Weight change (Mus musculus [4]) | Weight change (Mus musculus [5]) | inhibition in vivo at 100 mg/kg/day (Mus musculus [6]) | inhibition in vivo at 200 mg/kg/day (Mus musculus [7]) | inhibition in vivo at 300 mg/kg/day (Mus musculus [8]) | Weight change (Mus musculus [9]) | ILS at 25 mg/kg/day (Mus musculus [10]) | ILS at 50 mg/kg/day (Mus musculus [11]) | Weight change (Mus musculus [12]) | inhibition in vivo at 25 mg/kg/day (Mus musculus [13]) | inhibition in vivo at 50 mg/kg/day (Mus musculus [14]) | Weight change (Mus musculus [15]) | Weight change (Mus musculus [16])
1 | N#C[C@H]1[C@H](O)[C@@H](CO)O[C@H]1n1ccc(N)nc1=O [TAS-109] | -11% | -7% | 14% | 1.1 g | 1.2 g | 38% | 47% | 67% | 1 g |  |  |  |  |  |  | 
2 | CCCCCCCCCCCCCCCC(=O)OCC(COP(=O)([O-])OC[C@H]1O[C@@H](n2ccc(N)nc2=O)[C@@H](C#N)[C@@H]1O)OC(=O)CCCCCCCCCCCCCCC.[Na+] (stereo not given in full) | 21% | 38% | 40% | 0.9 g | 0 g | 93% | 98% | 100% | 1 g |  |  |  |  |  |  | 
3 | CCCCCCCC/C=C\CCCCCCCC(=O)OCC(COP(=O)([O-])OC[C@H]1O[C@@H](n2ccc(N)nc2=O)[C@@H](C#N)[C@@H]1O)OC(=O)CCCCCCC/C=C\CCCCCCCC.[Na+] (stereo not given in full) | 13% | -12% | -58% | 0.6 g | 2 g | 98% |  |  | 3 g | -3% | 7% | 1.6 g | 69% | 92% | 0.8 g | 
4 | CCCCCCCCCCCCCCCCCC(=O)OCC(COP(=O)([O-])OC[C@H]1O[C@@H](n2ccc(N)nc2=O)[C@@H](C#N)[C@@H]1O)OC(=O)CCCCCCCCCCCCCCCCC.[Na+] (stereo not given in full) | 20% | 49% | 60% | 1.2 g | -0.2 g | 88% | 97% | 98% | -0.3 g |  |  |  |  |  |  | 
5 | CCCCC/C=C\C/C=C\CCCCCCCC(=O)OCC(COP(=O)([O-])OC[C@H]1O[C@@H](n2ccc(N)nc2=O)[C@@H](C#N)[C@@H]1O)OC(=O)CCCCCCC/C=C\C/C=C\CCCCC.[Na+] (stereo not given in full) | 15% | 10% | 15% | -0.3 g | 1 g | 93% |  |  | 1 g |  |  |  |  |  |  | 
6 | CCCCCCCCCCCCCC(=O)OCC(COP(=O)([O-])OC[C@H]1O[C@@H](n2ccc(N)nc2=O)[C@@H](C#N)[C@@H]1O)OC(=O)CCCCCCCCCCCCC.[Na+] (stereo not given in full) | 4% | 22% | 0% | 0.8 g | 0.3 g | 80% | 97% |  |  |  |  |  |  |  |  | 1 g
